Test results as given in US6358999B2, “Use of zinc tranexamate in the treatment of diabetes” (Hamari Chemicals, LTD, priority 2000, dated 2002).

Key:
intestinal α-glucosidase [1] = assay: Inhibition of intestinal α-glucosidase activity of normal mouse (intestinal homogenate, glucose production); type: biochemical; settings: for Glucose (glucose production from isomaltose): substrate isomaltose; for Glucose (glucose production from isomaltose) / Glucose (glucose production from maltose) / Glucose (glucose production from sucrose): 37° C., 30 minutes; for Glucose (glucose production from maltose): substrate maltose
Experimental: (§1) Intestinal tract enucleated from a normal mouse was homogenized by the conventional method after removing membrane mucosa. As a substrate, sucrose, starch, maltose or isomaltose was used. The homogenate was incubated with the substrate in the presence of a test compound (Y-4 or zinc chloride) at 37° C. for 30 minutes. The reaction mixture was centrifuged and the glucose concentration in the resulting supernatant was assayed. The glucose assay was conducted calorimetrically by adding a chromogenic reagent (0.47 mol/l of orthotoluidine, 16 mol/l of acetic acid, 10 mmol/l of boric acid) to the supernatant, heating the mixture in a boiling water bath for 8 minutes and measuring the absorbance at 635 nm. α-Glucosidase activity expressed in terms of glucose concentration/mg protein was calculated.

intestinal α-glucosidase [2] = assay: Inhibition of intestinal α-glucosidase activity of streptozocin-induced diabetic mouse; type: biochemical; settings: for Glucose (glucose production from maltose) / Glucose (glucose production from sucrose): diabetic mouse; for Glucose (glucose production from maltose): substrate maltose; for Glucose (glucose production from sucrose): substrate sucrose
Experimental: as §1
Example 5 was repeated using intestinal tract enucleated from a diabetic mouse induced by the treatment with streptozocin instead of intestinal tract enucleated from a normal mouse to determine the inhibitory effect of Y-4 on α-glycosidase activity. The intestinal α-glucosidase activity was higher in streptozocin-induced diabetic mouse than in normal mouse. […] The inhibitory effect of Y-4 was more remarkable in the diabetic mouse than in normal mouse.

Compound: [Cl-].[Cl-].[Zn+2] [ZnCl2, zinc chloride]
- Inhibition of the enzymatic reaction with other substrates (intestinal α-glucosidase [1]; starch, maltose, isomaltose): not effective
- Glucose (glucose production from isomaltose) (intestinal α-glucosidase [1]; inhibitor 5 mM): 6.207 ± 0.230 mg/mg protein
- Glucose (glucose production from isomaltose) (intestinal α-glucosidase [1]; inhibitor 10 mM): 5.868 ± 0.496 mg/mg protein
- Glucose (glucose production from isomaltose) (intestinal α-glucosidase [1]; inhibitor 30 mM): 6.510 ± 0.169 mg/mg protein
- Glucose (glucose production from isomaltose) (intestinal α-glucosidase [1]; inhibitor 50 mM): 5.421 ± 0.339 mg/mg protein
- Glucose (glucose production from maltose) (intestinal α-glucosidase [1]; inhibitor 5 mM): 19.917 ± 0.932 mg/mg protein
- Glucose (glucose production from maltose) (intestinal α-glucosidase [1]; inhibitor 10 mM): 18.114 ± 0.145 mg/mg protein
- Glucose (glucose production from maltose) (intestinal α-glucosidase [1]; inhibitor 30 mM): 15.657 ± 0.036 mg/mg protein
- Glucose (glucose production from maltose) (intestinal α-glucosidase [1]; inhibitor 50 mM): 10.442 ± 0.290 mg/mg protein
- Inhibition of the enzymatic reaction with sucrose (intestinal α-glucosidase [1]; substrate sucrose): as effective as Y-4
- Glucose (glucose production from sucrose) (intestinal α-glucosidase [1]; substrate sucrose, inhibitor 5 mM): 3.509 ± 0.254 mg/mg protein
- Glucose (glucose production from sucrose) (intestinal α-glucosidase [1]; substrate sucrose, inhibitor 10 mM): 1.658 ± 0.078 mg/mg protein
- Glucose (glucose production from sucrose) (intestinal α-glucosidase [1]; substrate sucrose, inhibitor 30 mM): 0.714 ± 0.097 mg/mg protein
- Glucose (glucose production from sucrose) (intestinal α-glucosidase [1]; substrate sucrose, inhibitor 50 mM): 0.133 ± 0.024 mg/mg protein
- Glucose (glucose production from maltose) (intestinal α-glucosidase [2]; inhibitor 5 mM): 28.691 ± 1.222 mg/mg protein
- Glucose (glucose production from maltose) (intestinal α-glucosidase [2]; inhibitor 10 mM): 20.698 ± 0.442 mg/mg protein
- Glucose (glucose production from maltose) (intestinal α-glucosidase [2]; inhibitor 30 mM): 21.175 ± 0.105 mg/mg protein
- Glucose (glucose production from maltose) (intestinal α-glucosidase [2]; inhibitor 50 mM): 21.838 ± 0.652 mg/mg protein
- Glucose (glucose production from sucrose) (intestinal α-glucosidase [2]; inhibitor 5 mM): 13.346 ± 0.411 mg/mg protein
- Glucose (glucose production from sucrose) (intestinal α-glucosidase [2]; inhibitor 10 mM): 6.716 ± 0.145 mg/mg protein
- Glucose (glucose production from sucrose) (intestinal α-glucosidase [2]; inhibitor 30 mM): 5.772 ± 0.121 mg/mg protein
- Glucose (glucose production from sucrose) (intestinal α-glucosidase [2]; inhibitor 50 mM): 4.973 ± 0.024 mg/mg protein
- Inhibition of intestinal α-glucosidase, all substrates (intestinal α-glucosidase [2]; streptozocin-induced diabetic mouse): only weak inhibitory effects
